From ChEMBL document CHEMBL1681768, “Synthesis and biological evaluation of 4-quinazolinones as Rho kinase inhibitors” (Bioorg Med Chem Lett, 2011)

Key:
Format in all cases: ADME, organism-based
[1] = Volume of distribution at steady state in Sprague-Dawley rat at 1 mg/kg, iv; parameters: dose 1 mg/kg, route intravenous; conditions: in vivo, read-out: Vdss
[2] = Cmax in Sprague-Dawley rat at 2 mg/kg, po; parameters: dose 2 mg/kg, route oral; conditions: in vivo
[3] = Oral bioavailability in Sprague-Dawley rat at 2 mg/kg; conditions: in vivo
[4] = AUC in Sprague-Dawley rat at 2 mg/kg, po; parameters: dose 2 mg/kg, route oral; conditions: plasma

Row | Vd [1] [L/kg] | Cmax [2] [nM] | bioavailability [3] [%] | AUC [4] [µM·h] | Structure (SMILES)
1 | 0.14 | 2850 | 46 | 63.2 | COc1ccc2c(c1)C[C@H](c1nc3ccc(-c4cn[nH]c4)cc3c(=O)[nH]1)CO2
2 | 1.3 | 50 | 3 | 0.15 | COc1ccc2c(c1)CC(c1nc3c(OCCN(C)C)cc(-c4cn[nH]c4)cc3c(=O)[nH]1)CO2 (centres undefined)
3 | 0.27 | 8000 | 66 | 43.4 | COc1ccc2c(c1)CC(c1nc3ccc(-c4cn[nH]c4)cc3c(=O)[nH]1)CO2 (centres undefined)
4 | 0.1 | 4600 | 26 | 87.9 | COc1ccc2c(c1)CC(c1nc3c(OC)cc(-c4cn[nH]c4)cc3c(=O)[nH]1)CO2 (centres undefined)
5 | 0.49 | 580 | 13 | 2.36 | COc1ccc2c(c1)C[C@@H](c1nc3ccc(-c4cn[nH]c4)cc3c(=O)[nH]1)CO2
6 | 0.22 | 660 | 15 | 9.63 | COc1cccc(OCc2nc3c(OC)cc(-c4cn[nH]c4)cc3c(=O)[nH]2)c1
